Assay results published in patent US9937250B2, “Immunogenic tumor associated stromal cell antigen peptides and methods of their use” (University of Pittsburgh—Of the Commonwealth System of …, priority 2011, dated 2018).

Legend:
[1] = tested on: MC38 tumor microenvironment; assay: Fluorescence imaging of MC38 tumor sections after prophylactic vaccination; assay type: in vivo, HHD mice; conditions: day 14 tumors; p<0.05 vs. untreated or DC.IL12/no peptide
Source text: Day 14 MC38 tumors were harvested from HHD mice that had been vaccinated as outlined in FIG. 9B with the indicated peptides (or control PBS or DC.IL12 alone=No peptide). In FIG. 10A, six-micron tissue sections were co-stained with anti-CD8 (green) and anti-NG2 (red) antibodies and imaged by fluorescence microscopy. Blue signal=nuclear counterstain using 4′,6-diamidino-2-phenylindole (DAPI). FIG. 10B provides a summary of the mean+/−SD number of CD8^+ cells per high-power field (HPF) in MC38 tumors isolated from control or vaccinated mice as depicted in FIG. 10A. In FIG. 10C, tissue sections were co-stained with anti-CD31 (green) and anti-NG2 (red) antibodies and imaged by fluorescence microscopy. Blue signal=nuclear counterstain using DAPI. In FIG. 10D, the mean+/−SD number of CD31^+ vessels per HPF of MC38 tumors in control or vaccinated mice are summarized Representative data is depicted from 1 of 3 independent experiments performed. *p<0.05 versus DC only or untreated control mice.
Fluorescence Imaging of Tumor Sections. Tumor tissue samples were prepared and 6 micron sections prepared as previously reported (Komita et al., Cancer Res., 68:8076-8084, 2008). The following Abs were used: (for T cell analyses), rabbit anti-mouse NG2 (Millipore, Bedford, Mass.) and alexa488-conjugated anti-CD4 or -CD8β antibodies or matching isotype controls (all from BD-Biosciences); (for vascular analyses), rat anti-mouse CD31 (BD-Biosciences) and rabbit anti-mouse NG2 (Millipore) Abs; (for TBVA), rat anti-mouse CD31 (BD-Biosciences) and guinea pig anti-mouse NG2 Abs, along with anti-TBVA as described in Example 1. Imaging was performed using an Olympus Fluoview 500 Confocal microscope (Olympus America, Center Valley, Pa.).
Protective vaccines incorporating TBVA peptides promote enhanced infiltration of the TME by CD8^+ T cells in association with an inhibition of tumor vascularity. MC38 tumor lesions from all cohorts of animals with evidence of disease on day 14 (post-tumor inoculation) were isolated and immunofluorescence microscopy on tumor sections was performed. […] In marked contrast, CD4^+ T cell infiltration in the TME was sparse and the data were indistinguishable when comparing control vs. vaccinated mice (FIG. 17). […] Correlative analyses indicated an association between the anti-tumor efficacy of vaccines and their ability to promote CD8^+ T cell infiltration and reduced vascularity in the TME (FIG. 16).

CD8+ splenocytes = assay: Tc1 response to DC.IL12/peptide vaccination (splenic CD8+ T cell IFN-γ ELISA against peptide-pulsed T2 cells); assay type: in vivo, HHD mice; conditions: DC.IL12 pulsed with peptide(s), two s.c. vaccinations; versus DC only
Source text: FIGS. 9A-9B show a series of graphs illustrating induction of specific/protective CD8^+ T cells reactive against TASA as a consequence of DC/peptide-based vaccination. In FIG. 9A, HHD mice (five animals/cohort) were vaccinated twice (d-14, d-7) subcutaneously with PBS or with isologous DC.IL12 pulsed with PBS or synthetic peptides (Table 6) derived from the indicated TASA. In cases where more than 1 peptide was identified for a given target antigen, an equimolar pool of the indicated peptides (each 10 μM) was pulsed onto DC.IL12 and used for vaccination in the relevant cohort. One week after the second immunization, spleens were harvested and splenic CD8^+ T cells isolated using MACS-beads (Miltenyi). T cells were stimulated in vitro for 48 h using the HLA-A2^+ T2 cell line pulsed with relevant TASA vs. irrelevant HIV-nef190-198 ([…]; ref. 24) peptides. Cell-free supernatants were then recovered and IFN-γ levels by ELISA. Data are reported as mean+/−SD for triplicate ELISA determinations, and are representative of 3 independent experiments performed. *p<0.05 vs. HIV-nef control peptide responses. In FIG. 9B, HHD mice were vaccinated twice (days −14 and −7; right flank) subcutaneously with PBS or with isologous DC.IL12 pulsed with PBS or synthetic TASA peptides as indicated in FIG. 1A. In cases where more than 1 peptide is identified for a given target antigen, an equimolar pool of the indicated peptides (each 10 μM) was pulsed onto DC.IL12 and used for vaccination in the relevant cohort. One week after the booster vaccine (i.e. day zero), animals were challenged subcutaneously on their left flank with 2×10^6 MC38 colon carcinoma cells. Tumor growth was then monitored every 3-4 days through day 24. All data represent mean tumor area (in mm^2)+/−SD determined from 5 mice/cohort, and are representative of three independent experiments performed. *p<0.05 versus DC only on the indicated days.
Vaccine Experiments. For prophylactic experiments, HHD mice were immunized subcutaneously on the right flank with 100 μl PBS or PBS containing 10^6 syngenic DC.IL12 cells that had been untreated or pre-pulsed for 4 h at 37° C. with 10 μM synthetic peptide(s). Immunizations occurred on days −14 and −7, with mice subsequently receiving injections of MC38 (2×10^6) tumor cells in the left flank on d0. In all cases, treatment groups contained 5 mice per cohort. For analysis of tumor cellular composition in repeat experiments, MC38 tumors were isolated by surgical resection 10 days after tumor inoculation and prepared for fluorescence imaging, as described below. […] Mice were then untreated or treated with control, syngenic DC.IL12 or DC.IL12 (10^6 cells injected subcutaneously in the left flank on days 7 and 14) pulsed with synthetic TBVA peptides. In some assays, as indicated, in vivo antibody depletions (on days 6, 13 and 20 post-tumor inoculation to assess early involvement or on days 60 and 67 or 180 and 187 to assess late involvement) of protective CD4^+ T cells or CD8^+ T cells were performed and monitored as previously described (Zhao et al., Mol Ther., 19:805-814, 2011). In all cases, tumor size (area) was monitored every 3-4 days and is reported as mean+/−SD in mm^2.
Evaluation of Specific CD8^+ T Cell Responses in HHD Mice. MACS (Miltenyi Biotec) CD8^+ splenocytes were harvested (from 3 mice/group) 7 days after the second round of DC-based vaccination (i.e. day 21 after tumor inoculation) and analyzed for reactivity against unpulsed T2 cells, TBVA peptide-pulsed T2 cells, or day 19 (flow-sorted) B16-derived PDGFRβ^+CD31^negH-2K^b(neg) pericytes or PDGFRβ^negCD31^+H-2K^b(neg) VEC isolated as previously described (Zhao et al., Mol Ther., 19:805-814, 2011). Where indicated, 10 μg of anti-HLA-A2 mAb BB7.2 or control anti-class II mAb L243 (both from ATCC, Manassas, Va.) were added to replicate co-culture wells. After 48 h, supernatants were analyzed for mIFN-γ content by specific ELISA (BD-Biosciences; lower detection limit=31.3 pg/ml). […]

Substance | Suppression in CD31+ vessel counts in the MC38 TME [1] | Tc1 Response to Peptide Vaccine (HHD) (CD8+ splenocytes)
RGS5: RGS5-derived peptide 5-13 pulsed onto DC or DC.IL12 (LAALPHSCL; listed as Homo sapiens) | greatest degree of suppression in CD31^+ vessel counts | –
TEM1: TEM1-derived peptide 691-700 pulsed onto DC or DC.IL12 (LLVPTCVFLV; listed as Homo sapiens) | greatest degree of suppression in CD31^+ vessel counts | –
LAALPHSCL (listed as Homo sapiens) | – | + (+, p < 0.05 versus DC only)
EphA2: EphA2-derived peptide 883-891 pulsed onto DC or DC.IL12 (TLADFDPRV; listed as Homo sapiens) | greatest degree of suppression in CD31^+ vessel counts | –
